Reference: patent US20160039825A1 (BIOGEN MA INC., priority 2013, published 2016)
Structures can show the parent of a compound that is named as a salt.

Each compound was assayed against T1, Human ATX protein (Homo sapiens, UniProt Q13822) (assay: Autotaxin (ATX) assay, FRET with FS-3 substrate). Conditions: upper bound bins (no greater than 100, 250 or 500 nM); FS-3 2 μM, ATX 1.0 μg/mL.
T1 construct: made in house
Assay type: biochemical
Summary of the method: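 Hydrolysis of the FRET substrate FS-3 (2 μM final) unquenches fluorescein, read at excitation 485 nm and emission 538 nm after 2 h at room temperature, protected from light. Purified human ATX (1.0 μg/mL) and compound were first incubated for 30 min in pH 7.4 Tris/salt buffer containing 1 mg/mL fatty acid-free BSA.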
For `CC1c2cc(C(=O)O)nn2CCCN1C(=O)CCc1cc(Cl)cc(Cl)c1` (stereo not drawn) [Example 420], the IC50 was ≤ 500 nM. For `O=C(O)c1cc2n(n1)CC(O)CN(C(=O)OCc1cc(C(F)(F)F)cc(C(F)(F)F)c1)C2` (stereo not drawn) [Example 421], the IC50 was ≤ 500 nM. With `NC1CCN(C(=O)c2cc3n(n2)CCN(C(=O)OCc2cc(C(F)(F)F)cc(C(F)(F)F)c2)C3)CC1` [Example 422, 3,5-bis(trifluoromethyl)benzyl 2-(4-aminopiperidine-1-carbonyl)-6,7-dihydropyrazolo[1,5-a]pyrazine-5(4H)-carboxylate hydrochloride] the IC50 was ≤ 100 nM. With `CC1CNCCN1C(=O)c1cc2n(n1)CCN(C(=O)OCc1cc(C(F)(F)F)cc(C(F)(F)F)c1)C2` (stereo not drawn) [Example 423] the IC50 was ≤ 100 nM. With `NC1CN(C(=O)c2cc3n(n2)CCN(C(=O)OCc2cc(C(F)(F)F)cc(C(F)(F)F)c2)C3)C1` [Example 424] the IC50 was ≤ 100 nM. For `NCCNC(=O)c1cc2n(n1)CCN(C(=O)OCc1cc(C(F)(F)F)cc(C(F)(F)F)c1)C2` [Example 425], the IC50 was ≤ 100 nM. In the case of `O=C(OCc1cc(C(F)(F)F)cc(C(F)(F)F)c1)N1CCn2nc(C(=O)N3C4CCC3CNC4)cc2C1` [Example 426], the IC50 is reported as ≤ 100 nM. With `CC(c1cc2n(n1)CCN(C(=O)OCc1cc(C(F)(F)F)cc(C(F)(F)F)c1)C2)N1CC2CCC(C1)N2` (stereo not drawn) [Example 427] the IC50 was ≤ 100 nM. With `CC(c1cc2n(n1)CCN(C(=O)OCc1cc(C(F)(F)F)cc(C(F)(F)F)c1)C2)N1C2CCC1CNC2` (stereo not drawn) [Example 428] the IC50 was ≤ 100 nM. For `O=C(OCc1cc(Cl)cc(C(F)(F)F)c1)N1CCn2nc(C(=O)N3CC4CCC(C3)N4)cc2C1` [Example 429], the IC50 was ≤ 100 nM. With `CC1CNCC(C)N1C(=O)c1cc2n(n1)CCN(C(=O)OCc1cc(C(F)(F)F)cc(C(F)(F)F)c1)C2` (stereo not drawn) [Example 430] the IC50 was ≤ 100 nM. With `NC1CN(C(=O)c2cc3n(n2)CCN(C(=O)OCc2cc(Cl)cc(C(F)(F)F)c2)C3)C1` [Example 431] the IC50 was ≤ 100 nM. With `CC1(C)CNCCN1C(=O)c1cc2n(n1)CCN(C(=O)OCc1cc(Cl)cc(C(F)(F)F)c1)C2` [Example 432] the IC50 was ≤ 100 nM. In the case of `CC1CN(C(=O)c2cc3n(n2)CCN(C(=O)OCc2cc(C(F)(F)F)cc(C(F)(F)F)c2)C3)CC(C)N1` (stereo not drawn) [Example 433], the IC50 is reported as ≤ 100 nM. In the case of `O=C(OCc1cc(Cl)cc(C(F)(F)F)c1)N1CCn2nc(C(=O)N3CCNCC3)cc2C1` [Example 434], the IC50 is reported as ≤ 100 nM. For `O=C(OCc1cc(C(F)(F)F)cc(C(F)(F)F)c1)N1CCn2nc(C(=O)N3CCNCC3)cc2C1` [Example 435], the IC50 was ≤ 100 nM. `CC1(C)CN(C(=O)c2cc3n(n2)CCN(C(=O)OCc2cc(C(F)(F)F)cc(C(F)(F)F)c2)C3)CCN1` [Example 436] was tested, and the IC50 was ≤ 100 nM. In the case of `O=C(OCc1cc(C(F)(F)F)cc(C(F)(F)F)c1)N1CCn2nc(C(=O)N3CC4CCC(C3)N4)cc2C1` [Example 437], the IC50 is reported as ≤ 100 nM. For `CNC1CN(C(=O)c2cc3n(n2)CCN(C(=O)OCc2cc(C(F)(F)F)cc(C(F)(F)F)c2)C3)C1` [Example 438], the IC50 was ≤ 100 nM. With `CC1CN(C(=O)c2cc3n(n2)CCN(C(=O)OCc2cc(C(F)(F)F)cc(C(F)(F)F)c2)C3)CCN1` (stereo not drawn) [Example 439] the IC50 was ≤ 100 nM. `CC1(C)CNCCN1C(=O)c1cc2n(n1)CCN(C(=O)OCc1cc(C(F)(F)F)cc(C(F)(F)F)c1)C2` [Example 441] was tested, and the IC50 was ≤ 100 nM. With `O=C(OCc1cc(Cl)cc(C(F)(F)F)c1)N1CCn2nc(C(=O)N3CC4CNCC4C3)cc2C1` (stereo not drawn) [Example 442] the IC50 was ≤ 100 nM. `O=C(OCc1cc(C(F)(F)F)cc(C(F)(F)F)c1)N1CCn2nc(C3CCNCC3)cc2C1` [Example 443] was tested, and the IC50 was ≤ 100 nM. `O=C(OCc1cc(C(F)(F)F)cc(C(F)(F)F)c1)N1CCn2nc(C3=CCCNC3)cc2C1` [Example 444] was tested, and the IC50 was ≤ 100 nM. With `CC(c1cc2n(n1)CCCN(C(=O)OCc1cc(Cl)cc(Cl)c1)C2)N1CCCCC1` (stereo not drawn) [Example 446] the IC50 was ≤ 250 nM. In the case of `CC(c1cc2n(n1)CCN(C(=O)OCc1cc(C(F)(F)F)cc(C(F)(F)F)c1)C2)N1CCN(C(=O)OC(C)(C)C)CC1` (stereo not drawn) [Example 448], the IC50 is reported as ≤ 100 nM. With `CC(c1cc2n(n1)CCN(C(=O)OCc1cc(C(F)(F)F)cc(C(F)(F)F)c1)C2)N1CC2CCC(C1)N2C(=O)OC(C)(C)C` (stereo not drawn) [Example 449] the IC50 was ≤ 100 nM. `CC(c1cc2n(n1)CCN(C(=O)OCc1cc(C(F)(F)F)cc(C(F)(F)F)c1)C2)N1C2CCC1CN(C(=O)OC(C)(C)C)C2` (stereo not drawn) [Example 450] was tested, and the IC50 was ≤ 100 nM. In the case of `CC(c1cc2n(n1)CCCN(C(=O)OCc1cc(Cl)cc(Cl)c1)C2)N1C2CCCC1CCC2` (stereo not drawn) [Example 453], the IC50 is reported as ≤ 250 nM. For `CC(c1cc2n(n1)CCCN(C(=O)OCc1cc(Cl)cc(Cl)c1)C2)N1CCCC1` (stereo not drawn) [Example 454], the IC50 was ≤ 500 nM. With `CC(c1cc2n(n1)CCN(C(=O)OCc1cc(C(F)(F)F)cc(C(F)(F)F)c1)C2)N1CCC(C(=O)O)CC1` (stereo not drawn) [Example 456] the IC50 was ≤ 250 nM. With `CC(c1cc2n(n1)CCN(C(=O)OCc1cc(C(F)(F)F)cc(C(F)(F)F)c1)C2)N1CCC(O)CC1` (stereo not drawn) [Example 457] the IC50 was ≤ 250 nM. With `CC(c1cc2n(n1)CCN(C(=O)OCc1cc(C(F)(F)F)cc(C(F)(F)F)c1)C2)N1CCCCC1` (stereo not drawn) [Example 458] the IC50 was ≤ 100 nM. In the case of `O=C(NCCO)c1cc2n(n1)CCN(C(=O)OCc1cc(C(F)(F)F)cc(C(F)(F)F)c1)C2` [Example 460, 3,5-bis(trifluoromethyl)benzyl 2-((2-hydroxyethyl)carbamoyl)-6,7-dihydropyrazolo[1,5-a]pyrazine-5(4H)-carboxylate], the IC50 is reported as ≤ 100 nM. `CC(C)(C)OC(=O)N1CCN(C(=O)c2cc3n(n2)CCN(C(=O)OCc2cc(C(F)(F)F)cc(C(F)(F)F)c2)C3)C(C)(C)C1` [Example 462] was tested, and the IC50 was ≤ 100 nM. `CC1CN(C(=O)OC(C)(C)C)CCN1C(=O)c1cc2n(n1)CCN(C(=O)OCc1cc(C(F)(F)F)cc(C(F)(F)F)c1)C2` (stereo not drawn) [Example 464] was tested, and the IC50 was ≤ 100 nM. For `CC(C)(C)OC(=O)N1CCN(C(=O)c2cc3n(n2)CCN(C(=O)OCc2cc(C(F)(F)F)cc(C(F)(F)F)c2)C3)CC1(C)C` [Example 466], the IC50 was ≤ 100 nM. In the case of `CC1CN(C(=O)c2cc3n(n2)CCN(C(=O)OCc2cc(C(F)(F)F)cc(C(F)(F)F)c2)C3)CCN1C(=O)OC(C)(C)C` (stereo not drawn) [Example 467], the IC50 is reported as ≤ 100 nM. In the case of `CC1CN(C(=O)c2cc3n(n2)CCN(C(=O)OCc2cc(C(F)(F)F)cc(C(F)(F)F)c2)C3)CC(C)N1C(=O)OC(C)(C)C` (stereo not drawn) [Example 469], the IC50 is reported as ≤ 100 nM. With `CC(C)(C)OC(=O)N1C2CCC1CN(C(=O)c1cc3n(n1)CCN(C(=O)OCc1cc(C(F)(F)F)cc(C(F)(F)F)c1)C3)C2` [Example 470] the IC50 was ≤ 100 nM. In the case of `CC(C)(C)OC(=O)N1CCN(C(=O)c2cc3n(n2)CCN(C(=O)OCc2cc(Cl)cc(C(F)(F)F)c2)C3)CC1` [Example 471], the IC50 is reported as ≤ 100 nM. With `CC(CO)NC(=O)c1cc2n(n1)CCN(C(=O)OCc1cc(C(F)(F)F)cc(C(F)(F)F)c1)C2` (stereo not drawn) [Example 472] the IC50 was ≤ 100 nM. For `CC(C)(C)OC(=O)N1CC2CCC(C1)N2C(=O)c1cc2n(n1)CCN(C(=O)OCc1cc(C(F)(F)F)cc(C(F)(F)F)c1)C2` [Example 474], the IC50 was ≤ 100 nM. `CC(C)(C)OC(=O)N1CCN(C(=O)c2cc3n(n2)CCN(C(=O)OCc2cc(Cl)cc(C(F)(F)F)c2)C3)C(C)(C)C1` [Example 475] was tested, and the IC50 was ≤ 100 nM. With `CC1CN(C(=O)OC(C)(C)C)CC(C)N1C(=O)c1cc2n(n1)CCN(C(=O)OCc1cc(C(F)(F)F)cc(C(F)(F)F)c1)C2` (stereo not drawn) [Example 476] the IC50 was ≤ 100 nM. `CC(C)(C)OC(=O)N1C2CCC1CN(C(=O)c1cc3n(n1)CCN(C(=O)OCc1cc(Cl)cc(C(F)(F)F)c1)C3)C2` [Example 478] was tested, and the IC50 was ≤ 100 nM. `O=C(OCc1cc(Cl)cc(C(F)(F)F)c1)N1CCn2nc(C(=O)N3CCC(O)CC3)cc2C1` [Example 479] was tested, and the IC50 was ≤ 100 nM. In the case of `CN(C)C(=O)c1cc2n(n1)CCN(C(=O)OCc1cc(C(F)(F)F)cc(C(F)(F)F)c1)C2` [Example 480], the IC50 is reported as ≤ 250 nM. `CCCNC(=O)c1cc2n(n1)CCN(C(=O)OCc1cc(C(F)(F)F)cc(C(F)(F)F)c1)C2` [Example 481] was tested, and the IC50 was ≤ 100 nM. With `CNC(=O)c1cc2n(n1)CCN(C(=O)OCc1cc(C(F)(F)F)cc(C(F)(F)F)c1)C2` [Example 482] the IC50 was ≤ 100 nM. With `O=C(OCc1cc(C(F)(F)F)cc(C(F)(F)F)c1)N1CCn2nc(C(=O)N3CC(O)C3)cc2C1` [Example 483] the IC50 was ≤ 100 nM. `O=C(OCc1cc(C(F)(F)F)cc(C(F)(F)F)c1)N1CCn2nc(C(=O)N3CCC3)cc2C1` [Example 485] was tested, and the IC50 was ≤ 100 nM. `CC(C)(C)OC(=O)N1CCN(C(=O)c2cc3n(n2)CCN(C(=O)OCc2cc(C(F)(F)F)cc(C(F)(F)F)c2)C3)CC1` [Example 486] was tested, and the IC50 was ≤ 100 nM. With `O=C(OCc1cc(C(F)(F)F)cc(C(F)(F)F)c1)N1CCn2nc(C(=O)N3C4CCCC3CCC4)cc2C1` [Example 487] the IC50 was ≤ 100 nM. `CC1CCN(C(=O)c2cc3n(n2)CCN(C(=O)OCc2cc(C(F)(F)F)cc(C(F)(F)F)c2)C3)CC1` [Example 488] was tested, and the IC50 was ≤ 100 nM. With `CN1CCN(C(=O)c2cc3n(n2)CCN(C(=O)OCc2cc(C(F)(F)F)cc(C(F)(F)F)c2)C3)CC1` [Example 489] the IC50 was ≤ 100 nM. `O=C(OCc1cc(C(F)(F)F)cc(C(F)(F)F)c1)N1CCn2nc(C(=O)N3CCC(O)CC3)cc2C1` [Example 490] was tested, and the IC50 was ≤ 100 nM. In the case of `NC(=O)c1cc2n(n1)CCN(C(=O)OCc1cc(C(F)(F)F)cc(C(F)(F)F)c1)C2` [Example 491], the IC50 is reported as ≤ 100 nM. For `O=C(NC1CCCCC1)c1cc2n(n1)CCN(C(=O)OCc1cc(C(F)(F)F)cc(C(F)(F)F)c1)C2` [Example 492], the IC50 was ≤ 100 nM. `O=C(OCc1cc(C(F)(F)F)cc(C(F)(F)F)c1)N1CCn2nc(C(=O)N3CCCCC3)cc2C1` [Example 493] was tested, and the IC50 was ≤ 100 nM. With `COC(=O)C1CCN(C(=O)c2cc3n(n2)CCN(C(=O)OCc2cc(C(F)(F)F)cc(C(F)(F)F)c2)C3)CC1` [Example 494] the IC50 was ≤ 100 nM. In the case of `CN1CCN(C(=O)c2cc3n(n2)CCN(C(=O)OCc2cc(Cl)cc(C(F)(F)F)c2)C3)C(C)(C)C1` [Example 495], the IC50 is reported as ≤ 100 nM. With `O=C(OCc1cc(C(F)(F)F)cc(C(F)(F)F)c1)N1CCn2nc(-c3cccnc3)cc2C1` [Example 496, 3,5-bis(trifluoromethyl)benzyl 2-(pyridin-3-yl)-6,7-dihydropyrazolo[1,5-a]pyrazine-5(4H)-carboxylate] the IC50 was ≤ 100 nM.
